According to PubChem BioAssay (NCI):
“And” between values parts separate entries of the source, which are not always exact repeats. Identical values can stand only once.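 1) Cells in 96-well plates. 2) Compound, 48 h, 5 concentrations. 3) Linear interpolation between surrounding doses. 4) Unreached endpoint = highest concentration. GI50 is the concentration that inhibits growth by half. TGI is the concentration that stops growth completely.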

test system: HOP-62 NSCLC; test: inhibition of tumour cell growth, NCI panel, 48 h

Row | Compound | GI50 | TGI
1 | CCOC(=O)Oc1c(OC)cc(C(=O)NC2CCc3cc(OC)c(OC)c(OC)c3-c3ccc(SC)c(=O)cc32)cc1OC (stereo not given) | 0.0328 µM | 59.6 µM
2 | CC(=O)Nc1ccc(C(=O)NN2C(=O)C(Cl)C2c2ccccc2)cc1 (stereo not given) | – | > 100 µM
3 | CC(C)(C)OC(=O)NCC(=O)OCc1ccccc1 | – | > 100 µM
4 | CSc1nc2c(nc(C)c(=O)n2C2OCC(OC(C)=O)C(OC(C)=O)C2OC(C)=O)c(=O)[nH]1 (stereo not given) | – | > 100 µM
5 | O=S(O)CCCCSSCC(O)C(O)CSSCCCCS(=O)O (stereo not given) | – | > 100 µM
6 | Cc1ccccc1N1C(=O)/C(=C/c2ccc(N(CCC#N)CCC#N)cc2)N=C1c1cc([N+](=O)[O-])ccc1Cl | – | > 100 µM
7 | COc1ccc(C2S/C(=C\c3ccccc3O)C(=O)N2NC(=O)Cc2ccccc2)cc1 (stereo not given) | – | > 100 µM
8 | CCC[CH2][Sn]([CH2]CCC)([CH2]CCC)[O]C(=O)CC | 0.188 µM | 0.414 µM
9 | CNC(=S)NC1CCCCC1NC(=S)NC (stereo not given) | – | > 100 µM
10 | CC1OC(n2cc(F)c(=O)[nH]c2=O)C=CC1O (stereo not given) | – | > 100 µM
11 | C=C(C=O)[C@@H]1C2OC(=O)C(=C)[C@@H]2CC(O)[C@@]1(C)CC (stereo not given in full) | – | > 100 µM
12 | C=C(CCCCC)CN1CCCC1[C@@](C)(O)CC(=O)OCC (stereo not given in full) | – | > 100 µM
13 | C=CC1CC12C(=O)C1OC2(C)C2C(=O)c3cc4ccccc4cc3C(=O)C12 (stereo not given) | 75.9 µM | > 100 µM
14 | O=C1c2ccccc2C(=O)C1(Cl)C1(S(=O)(=O)O)c2ccccc2-c2ccccc21 | – | > 100 µM

test system: EKVX NSCLC; test: inhibition of tumour cell growth, NCI panel, 48 h

Row | Compound | TGI | GI50
15 | O=[n+]1c2c(n([O-])c3ccccc31)CCCCCCCCCC2 | > 100 µM | –
16 | O=C(OCc1ccc2cccc(O)c2n1)N1CCN(C(=O)c2cc3cc(F)ccc3[nH]2)CC1 | 2.71 µM | 1.4 µM
17 | CNC(=S)N(C)C(=S)Nn1c(=O)c(C)nn(C)c1=S | > 100 µM | –
18 | O=C1CCCC/C(=C/c2ccccc2)N1 | > 100 µM | –
19 | O=C1CN=C(C[N+](=O)[O-])c2ccccc21 | > 100 µM | –
20 | CCCCN(CCCC)CC(C(=O)Nc1ccc([N+](=O)[O-])cc1[N+](=O)[O-])/C(C)=N\NC(=S)NN (stereo not given) | > 100 µM | –
21 | S=C(N/N=C/c1ccco1)NC12CC3CC(CC(C3)C1)C2 | > 100 µM | –
22 | CS(=O)(=O)N/N=C/CN1C(=O)c2ccccc2C1=O | > 100 µM | –
23 | CC(C)(C)C(=O)OCOP(=O)(OCOC(=O)C(C)(C)C)C1CCCN(O)C1=O (stereo not given) | 12.5 µM | 0.657 µM
24 | CC(=O)O.CC(=O)O.CC(=O)O.CC(=O)O.CC(=O)O.CC(=O)O.O.[Ti].[Ti] | > 100 µM | > 100 µM
25 | COC(=O)C1=C(c2ccc3c(c2)OCO3)O[C@H](c2cc(OC)c(OC)c(OC)c2)[C@H]1COC(C)=O | > 100 µM | –
26 | COc1ccc(OC)c(NC(=O)C(=O)NNC(=O)c2sc(NNC(C)=O)nc2C)c1 | > 100 µM | –
27 | CCCCc1c(OC)cc(O)c2c1C(=O)c1[nH]c(C(=O)O)c(O)c(=O)c1C2=O | > 100 µM | –
28 | O=[N+]([O-])c1nccn1CC(O)c1ccc(F)cc1 (stereo not given) | > 100 µM | –
29 | COc1ccc(NC(=O)CCc2cc(-c3ccc(O)c(OC)c3)nc(NC#N)n2)cc1 | > 100 µM | –
30 | COC(=O)c1cc2c3ccccc3n(C(C)=O)c2cn1 | > 100 µM | –
31 | O=C1c2ccccc2C2(Br)C(=O)c3ccccc3C12 (stereo not given) | > 100 µM | –

Row | Compound | TGI | GI50
32 | CCCCOC(=O)C1C(c2ccc(Cl)cc2)NC(c2ccc(Cl)cc2)C(C(=O)OCCCC)S1(=O)=O (stereo not given) | > 100 µM | –
33 | Cc1cc(Br)cc(C)c1NC(=O)C(=O)C(C(=O)c1ccc2ccccc2c1)C1OC(=O)c2ccccc21 (stereo not given) | 65.3 µM | –
34 | CCOC(=O)Oc1c(OC)cc(C(=O)NC2CCc3cc(OC)c(OC)c(OC)c3-c3ccc(SC)c(=O)cc32)cc1OC (stereo not given) | 37.9 µM | –
35 | CC(=O)Nc1ccc(C(=O)NN2C(=O)C(Cl)C2c2ccccc2)cc1 (stereo not given) | > 100 µM | –
36 | Cc1ccc(SC(C)/C=C/NNC2=NC(c3ccccc3)C(c3ccccc3)=NN2)cc1 (stereo not given) | > 100 µM | –
37 | CC(C)(C)[SiH]12(OC(C(F)(F)F)(C(F)(F)F)c3ccccc31)OC(C(F)(F)F)(C(F)(F)F)c1ccccc12 | 14.1 µM | –
38 | CSc1nc2c(nc(C)c(=O)n2C2OCC(OC(C)=O)C(OC(C)=O)C2OC(C)=O)c(=O)[nH]1 (stereo not given) | > 100 µM | –
39 | O=S(O)CCCCSSCC(O)C(O)CSSCCCCS(=O)O (stereo not given) | > 100 µM and 93.1 µM | –
40 | O=C1OC(c2ccccc2)=N/C1=C/C=C/c1ccco1 | > 100 µM | –
41 | Cc1ccc(S(=O)(=O)NCC2CCCCC2=O)cc1 (stereo not given) | > 100 µM | –
42 | CC(C)=C[C@@H]1C[C@H](C)[C@H]2CC[C@H](C)C3=C2[C@](O)(OC3=O)[C@]1(C)O | > 100 µM | > 100 µM
43 | CCC[CH2][Sn]([CH2]CCC)([CH2]CCC)[O]C(=O)CC | 0.335 µM | 0.121 µM
44 | CNC(=S)NC1CCCCC1NC(=S)NC (stereo not given) | > 100 µM | –
45 | CC1OC(n2cc(F)c(=O)[nH]c2=O)C=CC1O (stereo not given) | > 100 µM | –
46 | C=C(C=O)[C@@H]1C2OC(=O)C(=C)[C@@H]2CC(O)[C@@]1(C)CC (stereo not given in full) | 51.1 µM | –
47 | C=C(CCCCC)CN1CCCC1[C@@](C)(O)CC(=O)OCC (stereo not given in full) | > 100 µM | –
48 | C=CC1CC12C(=O)C1OC2(C)C2C(=O)c3cc4ccccc4cc3C(=O)C12 (stereo not given) | > 100 µM | 16.8 µM

test system: HCT-15 colon; test: inhibition of tumour cell growth, NCI panel, 48 h

Row | Compound | TGI | GI50
49 | O=[n+]1c2c(n([O-])c3ccccc31)CCCCCCCCCC2 | > 100 µM | –
50 | Cn1cc(C2=C(c3ccc4ccccc4c3)C(=O)NC2=O)c2ccccc21 | > 25 µM | 6.27 µM
51 | O=C(OCc1ccc2cccc(O)c2n1)N1CCN(C(=O)c2cc3cc(F)ccc3[nH]2)CC1 | 1.8 µM | 0.452 µM
52 | CNC(=S)N(C)C(=S)Nn1c(=O)c(C)nn(C)c1=S | > 100 µM | –
53 | O=C1CCCC/C(=C/c2ccccc2)N1 | > 100 µM | –
54 | O=C1CN=C(C[N+](=O)[O-])c2ccccc21 | > 100 µM | –
55 | S=C(N/N=C/c1ccco1)NC12CC3CC(CC(C3)C1)C2 | > 100 µM | –
56 | CS(=O)(=O)N/N=C/CN1C(=O)c2ccccc2C1=O | > 100 µM | –
57 | CC(C)(C)C(=O)OCOP(=O)(OCOC(=O)C(C)(C)C)C1CCCN(O)C1=O (stereo not given) | 14.8 µM | 0.675 µM
58 | CC(=O)O.CC(=O)O.CC(=O)O.CC(=O)O.CC(=O)O.CC(=O)O.O.[Ti].[Ti] | > 100 µM | > 100 µM
59 | COC(=O)C1=C(c2ccc3c(c2)OCO3)O[C@H](c2cc(OC)c(OC)c(OC)c2)[C@H]1COC(C)=O | > 100 µM | –
60 | COc1ccc(OC)c(NC(=O)C(=O)NNC(=O)c2sc(NNC(C)=O)nc2C)c1 | > 100 µM | –
61 | CCCCc1c(OC)cc(O)c2c1C(=O)c1[nH]c(C(=O)O)c(O)c(=O)c1C2=O | > 100 µM | –
62 | O=[N+]([O-])c1nccn1CC(O)c1ccc(F)cc1 (stereo not given) | > 100 µM | –
63 | COc1ccc(NC(=O)CCc2cc(-c3ccc(O)c(OC)c3)nc(NC#N)n2)cc1 | > 100 µM | –
64 | COC(=O)c1cc2c3ccccc3n(C(C)=O)c2cn1 | > 100 µM | –
65 | O=C1c2ccccc2C2(Br)C(=O)c3ccccc3C12 (stereo not given) | > 100 µM | –
66 | CCCCOC(=O)C1C(c2ccc(Cl)cc2)NC(c2ccc(Cl)cc2)C(C(=O)OCCCC)S1(=O)=O (stereo not given) | > 100 µM | –
67 | Cc1cc(Br)cc(C)c1NC(=O)C(=O)C(C(=O)c1ccc2ccccc2c1)C1OC(=O)c2ccccc21 (stereo not given) | 42.3 µM | –
68 | CCOC(=O)Oc1c(OC)cc(C(=O)NC2CCc3cc(OC)c(OC)c(OC)c3-c3ccc(SC)c(=O)cc32)cc1OC (stereo not given) | 13.6 µM | 0.132 µM

Row | Compound | TGI | GI50
69 | COC(=O)c1cc2c(cc1O)[C@@H](NC(C)=O)CCc1cc(OC)c(OC)c(OC)c1-2 | – | 0.0226 µM
70 | CC(C)(C)OC(=O)NCC(=O)OCc1ccccc1 | > 100 µM | –
71 | Cc1ccc(SC(C)/C=C/NNC2=NC(c3ccccc3)C(c3ccccc3)=NN2)cc1 (stereo not given) | > 100 µM | –
72 | CC(C)(C)[SiH]12(OC(C(F)(F)F)(C(F)(F)F)c3ccccc31)OC(C(F)(F)F)(C(F)(F)F)c1ccccc12 | 4.77 µM | –
73 | CSc1nc2c(nc(C)c(=O)n2C2OCC(OC(C)=O)C(OC(C)=O)C2OC(C)=O)c(=O)[nH]1 (stereo not given) | > 100 µM | –
74 | O=S(O)CCCCSSCC(O)C(O)CSSCCCCS(=O)O (stereo not given) | > 100 µM | –
75 | O=C1OC(c2ccccc2)=N/C1=C/C=C/c1ccco1 | > 100 µM | –
76 | Clc1ccc2c(NCCCNc3nccc(Nc4ccc(Br)cc4)n3)ccnc2c1 | 2.7 µM | 1.28 µM
77 | Cc1ccccc1N1C(=O)/C(=C/c2ccc(N(CCC#N)CCC#N)cc2)N=C1c1cc([N+](=O)[O-])ccc1Cl | > 100 µM | –
78 | COc1ccc(C2S/C(=C\c3ccccc3O)C(=O)N2NC(=O)Cc2ccccc2)cc1 (stereo not given) | > 100 µM | –
79 | Cc1ccc(S(=O)(=O)NCC2CCCCC2=O)cc1 (stereo not given) | > 100 µM | –
80 | CC(C)=C[C@@H]1C[C@H](C)[C@H]2CC[C@H](C)C3=C2[C@](O)(OC3=O)[C@]1(C)O | > 100 µM | > 100 µM
81 | CCC[CH2][Sn]([CH2]CCC)([CH2]CCC)[O]C(=O)CC | 0.409 µM | 0.156 µM
82 | CNC(=S)NC1CCCCC1NC(=S)NC (stereo not given) | > 100 µM | –
83 | CC1OC(n2cc(F)c(=O)[nH]c2=O)C=CC1O (stereo not given) | > 100 µM | –
84 | C=C(C=O)[C@@H]1C2OC(=O)C(=C)[C@@H]2CC(O)[C@@]1(C)CC (stereo not given in full) | 24.7 µM | –
85 | C=C(CCCCC)CN1CCCC1[C@@](C)(O)CC(=O)OCC (stereo not given in full) | > 100 µM | –
86 | C=CC1CC12C(=O)C1OC2(C)C2C(=O)c3cc4ccccc4cc3C(=O)C12 (stereo not given) | 42.7 µM | 11.9 µM
87 | O=C1c2ccccc2C(=O)C1(Cl)C1(S(=O)(=O)O)c2ccccc2-c2ccccc21 | > 100 µM | –
